{
  "source": "ChEMBL document CHEMBL5465560",
  "about": "“Selectivity Literature for EUbOPEN Chemogenomic Library” (2024)",
  "key": {"[1]": {"biological_target": "STE20-like serine/threonine-protein kinase (Homo sapiens, UniProt Q9H2G2)", "assay": "Selectivity interaction (Kinase panel (KiNativ target engagement assay in Jurkat cells)) EUB0001635a SLK", "type": "cell-based", "details": "Selectivity number of off-targets 0.0, Selectivity number of targets 233.0, Source Knowledge https://www.sciencedirect.com/science/article/pii/S2451945619300674?via%3Dihub, at 1 µM"}, "[2]": {"biological_target": "T1, Serine/threonine-protein kinase Sgk3 (Homo sapiens) (UniProt Q96BR1)", "T1 sequence (whole entry)": "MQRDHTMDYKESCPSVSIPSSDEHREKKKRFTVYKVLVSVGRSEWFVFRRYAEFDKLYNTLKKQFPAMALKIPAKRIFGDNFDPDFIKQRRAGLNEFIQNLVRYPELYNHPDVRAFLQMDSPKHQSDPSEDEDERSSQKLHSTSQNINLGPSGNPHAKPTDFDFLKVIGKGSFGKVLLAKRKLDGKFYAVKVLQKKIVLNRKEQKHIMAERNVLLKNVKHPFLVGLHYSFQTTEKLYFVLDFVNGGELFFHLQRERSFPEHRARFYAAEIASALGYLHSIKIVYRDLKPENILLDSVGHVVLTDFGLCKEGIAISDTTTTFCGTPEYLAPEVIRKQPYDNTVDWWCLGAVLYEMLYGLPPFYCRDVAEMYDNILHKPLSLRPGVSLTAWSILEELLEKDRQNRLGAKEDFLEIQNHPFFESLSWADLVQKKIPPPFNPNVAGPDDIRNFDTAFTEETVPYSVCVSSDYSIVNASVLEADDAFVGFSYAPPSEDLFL", "assay": "Selectivity interaction (Kinase panel (KiNativ target engagement assay in Jurkat cells)) EUB0001635a SGK3", "type": "cell-based", "details": "at 1 µM"}, "[3]": {"biological_target": "STE20/SPS1-related proline-alanine-rich protein kinase (Homo sapiens) (UniProt Q9UEW8)", "assay": "Selectivity interaction (Kinase panel (DSF assay)) EUB0001559a STK39"}, "[4]": {"biological_target": "T1, Serine/threonine-protein kinase Sgk3 (Homo sapiens)", "assay": "Selectivity interaction (KinomeScan (DiscoverX)) EUB0000045b SGK3"}, "[5]": {"biological_target": "Tyrosine-protein kinase FRK (Homo sapiens) (UniProt P42685)", "assay": "Selectivity interaction (Kinase panel (Z-LYTE Assay)) EUB0001632a FRK", "details": "at 10 µM"}, "[6]": {"biological_target": "Cyclin-dependent kinase 13 (Homo sapiens, UniProt Q14004)", "sequence (Q14004 whole entry, looked up)": "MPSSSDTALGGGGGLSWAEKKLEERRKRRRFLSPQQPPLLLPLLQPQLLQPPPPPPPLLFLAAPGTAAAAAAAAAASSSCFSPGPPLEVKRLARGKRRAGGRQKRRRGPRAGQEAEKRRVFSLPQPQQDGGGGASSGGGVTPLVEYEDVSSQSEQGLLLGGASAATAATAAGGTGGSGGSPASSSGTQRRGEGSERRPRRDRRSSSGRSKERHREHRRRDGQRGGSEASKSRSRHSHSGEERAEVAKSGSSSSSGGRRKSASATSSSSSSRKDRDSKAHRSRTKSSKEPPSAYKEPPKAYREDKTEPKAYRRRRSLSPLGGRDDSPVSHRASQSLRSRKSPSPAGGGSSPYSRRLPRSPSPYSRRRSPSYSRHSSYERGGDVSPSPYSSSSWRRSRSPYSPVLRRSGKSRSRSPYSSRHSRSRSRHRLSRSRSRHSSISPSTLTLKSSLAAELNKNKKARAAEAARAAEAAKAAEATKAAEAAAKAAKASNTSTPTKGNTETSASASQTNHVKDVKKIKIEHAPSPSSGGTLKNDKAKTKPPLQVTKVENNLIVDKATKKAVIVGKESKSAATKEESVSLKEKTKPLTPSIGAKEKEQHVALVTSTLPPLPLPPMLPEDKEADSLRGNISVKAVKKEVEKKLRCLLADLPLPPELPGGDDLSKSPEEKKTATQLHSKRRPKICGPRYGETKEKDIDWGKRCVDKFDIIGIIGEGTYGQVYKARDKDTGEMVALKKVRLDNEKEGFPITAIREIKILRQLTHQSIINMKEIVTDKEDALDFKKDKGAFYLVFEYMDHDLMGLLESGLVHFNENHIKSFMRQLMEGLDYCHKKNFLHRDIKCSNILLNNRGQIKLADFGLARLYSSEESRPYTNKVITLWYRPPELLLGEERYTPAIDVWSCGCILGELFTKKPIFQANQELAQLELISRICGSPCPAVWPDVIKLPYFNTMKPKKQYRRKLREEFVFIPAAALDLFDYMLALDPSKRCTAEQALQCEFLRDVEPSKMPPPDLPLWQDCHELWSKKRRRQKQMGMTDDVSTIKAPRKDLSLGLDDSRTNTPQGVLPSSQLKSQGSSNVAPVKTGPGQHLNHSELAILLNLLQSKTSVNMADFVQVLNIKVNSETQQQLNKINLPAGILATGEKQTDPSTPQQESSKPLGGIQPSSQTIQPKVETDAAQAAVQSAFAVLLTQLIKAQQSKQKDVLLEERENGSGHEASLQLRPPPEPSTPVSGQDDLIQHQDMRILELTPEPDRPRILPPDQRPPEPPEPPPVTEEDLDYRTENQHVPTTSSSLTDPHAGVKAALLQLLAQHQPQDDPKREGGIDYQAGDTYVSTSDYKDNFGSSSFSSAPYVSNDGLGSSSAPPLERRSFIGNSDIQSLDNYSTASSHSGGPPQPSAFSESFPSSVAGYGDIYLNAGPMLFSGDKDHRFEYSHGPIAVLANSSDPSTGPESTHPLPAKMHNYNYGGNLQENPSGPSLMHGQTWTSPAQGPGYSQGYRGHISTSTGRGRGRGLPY", "assay": "Selectivity interaction (KinomeScan (DiscoverX)) EUB0000666a CDK13", "details": "at 10 µM"}, "[7]": {"biological_target": "Transcription intermediary factor 1-alpha (Homo sapiens) (UniProt O15164)", "assay": "Selectivity interaction (Bromodomain panel (DSF asssay)) EUB0000270b TRIM24"}, "Insulin receptor": {"biological_target": "Insulin receptor (Homo sapiens, UniProt P06213)", "assay": "Selectivity interaction (ProQinase) EUB0000171b INSR", "details": "at 1 µM"}, "[8]": {"biological_target": "Homeodomain-interacting protein kinase 3 (Homo sapiens, UniProt Q9H422)", "sequence (Q9H422 whole entry, looked up)": "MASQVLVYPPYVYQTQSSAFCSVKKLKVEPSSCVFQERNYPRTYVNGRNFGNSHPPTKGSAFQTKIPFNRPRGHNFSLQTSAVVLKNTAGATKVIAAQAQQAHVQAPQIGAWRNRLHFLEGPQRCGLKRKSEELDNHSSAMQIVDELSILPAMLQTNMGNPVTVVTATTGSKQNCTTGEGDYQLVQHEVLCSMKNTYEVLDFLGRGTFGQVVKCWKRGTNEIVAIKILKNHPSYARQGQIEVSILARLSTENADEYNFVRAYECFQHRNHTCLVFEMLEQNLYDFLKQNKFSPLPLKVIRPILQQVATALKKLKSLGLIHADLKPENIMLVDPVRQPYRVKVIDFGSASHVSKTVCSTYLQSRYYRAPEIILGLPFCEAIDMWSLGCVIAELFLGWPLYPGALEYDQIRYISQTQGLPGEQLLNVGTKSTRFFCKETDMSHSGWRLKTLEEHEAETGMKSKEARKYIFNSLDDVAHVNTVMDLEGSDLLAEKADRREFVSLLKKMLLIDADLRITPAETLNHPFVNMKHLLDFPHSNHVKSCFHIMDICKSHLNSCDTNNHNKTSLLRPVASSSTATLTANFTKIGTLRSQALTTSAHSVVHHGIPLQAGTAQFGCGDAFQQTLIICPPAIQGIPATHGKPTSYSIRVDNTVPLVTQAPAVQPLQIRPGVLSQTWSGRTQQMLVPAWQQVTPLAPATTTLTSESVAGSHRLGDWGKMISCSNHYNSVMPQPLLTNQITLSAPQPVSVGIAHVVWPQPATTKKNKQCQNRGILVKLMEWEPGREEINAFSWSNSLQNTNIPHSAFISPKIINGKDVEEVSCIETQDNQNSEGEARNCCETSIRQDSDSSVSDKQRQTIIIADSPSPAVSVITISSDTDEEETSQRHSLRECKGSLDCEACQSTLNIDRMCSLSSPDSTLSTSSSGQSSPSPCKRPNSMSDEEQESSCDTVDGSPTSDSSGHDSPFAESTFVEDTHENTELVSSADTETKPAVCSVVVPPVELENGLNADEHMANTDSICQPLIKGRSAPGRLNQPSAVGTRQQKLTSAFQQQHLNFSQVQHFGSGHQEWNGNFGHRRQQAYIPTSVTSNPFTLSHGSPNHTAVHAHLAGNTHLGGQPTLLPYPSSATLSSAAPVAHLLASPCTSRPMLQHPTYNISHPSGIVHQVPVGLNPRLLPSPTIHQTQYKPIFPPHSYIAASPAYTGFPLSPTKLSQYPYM", "assay": "Selectivity interaction (KinomeScan (DiscoverX)) EUB0000607a HIPK3", "details": "at 10 µM"}, "[9]": {"biological_target": "Casein kinase II subunit alpha' (Homo sapiens) (UniProt P19784)", "sequence (P19784 whole entry, looked up)": "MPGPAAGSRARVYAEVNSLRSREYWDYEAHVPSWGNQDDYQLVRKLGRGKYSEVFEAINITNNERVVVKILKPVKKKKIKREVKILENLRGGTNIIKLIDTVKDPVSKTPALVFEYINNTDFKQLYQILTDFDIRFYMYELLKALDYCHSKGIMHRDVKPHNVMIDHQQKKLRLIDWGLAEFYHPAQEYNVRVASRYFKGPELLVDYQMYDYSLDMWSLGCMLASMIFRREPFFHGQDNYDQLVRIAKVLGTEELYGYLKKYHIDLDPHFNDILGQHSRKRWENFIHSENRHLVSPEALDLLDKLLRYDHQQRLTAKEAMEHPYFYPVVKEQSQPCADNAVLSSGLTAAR", "assay": "Selectivity interaction (KinomeScan (DiscoverX)) EUB0000607a CSNK2A2", "details": "at 10 µM"}, "[10]": {"biological_target": "G protein-coupled receptor kinase 4 (Homo sapiens) (UniProt P32298)", "sequence (P32298 whole entry, looked up)": "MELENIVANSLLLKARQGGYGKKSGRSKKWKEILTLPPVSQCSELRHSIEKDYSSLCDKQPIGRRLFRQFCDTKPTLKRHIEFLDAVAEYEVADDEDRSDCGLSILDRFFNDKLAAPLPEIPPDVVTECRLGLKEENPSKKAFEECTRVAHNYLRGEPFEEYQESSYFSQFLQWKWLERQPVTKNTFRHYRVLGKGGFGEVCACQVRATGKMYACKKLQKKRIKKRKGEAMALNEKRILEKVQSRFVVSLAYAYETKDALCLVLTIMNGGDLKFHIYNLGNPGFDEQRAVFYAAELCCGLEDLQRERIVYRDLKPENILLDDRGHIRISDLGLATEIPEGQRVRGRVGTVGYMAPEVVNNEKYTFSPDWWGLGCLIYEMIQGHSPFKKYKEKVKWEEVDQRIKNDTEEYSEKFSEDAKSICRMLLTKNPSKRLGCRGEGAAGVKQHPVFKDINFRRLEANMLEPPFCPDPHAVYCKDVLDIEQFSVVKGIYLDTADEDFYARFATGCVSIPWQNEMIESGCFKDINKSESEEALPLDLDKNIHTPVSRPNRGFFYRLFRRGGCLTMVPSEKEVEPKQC", "assay": "Selectivity interaction (SelectScreen profiling (Invitrogen)) EUB0000607a GRK4", "details": "at 2 µM"}, "[11]": {"biological_target": "Dual specificity protein kinase CLK4 (Homo sapiens, UniProt Q9HAZ1)", "sequence (Q9HAZ1 whole entry, looked up)": "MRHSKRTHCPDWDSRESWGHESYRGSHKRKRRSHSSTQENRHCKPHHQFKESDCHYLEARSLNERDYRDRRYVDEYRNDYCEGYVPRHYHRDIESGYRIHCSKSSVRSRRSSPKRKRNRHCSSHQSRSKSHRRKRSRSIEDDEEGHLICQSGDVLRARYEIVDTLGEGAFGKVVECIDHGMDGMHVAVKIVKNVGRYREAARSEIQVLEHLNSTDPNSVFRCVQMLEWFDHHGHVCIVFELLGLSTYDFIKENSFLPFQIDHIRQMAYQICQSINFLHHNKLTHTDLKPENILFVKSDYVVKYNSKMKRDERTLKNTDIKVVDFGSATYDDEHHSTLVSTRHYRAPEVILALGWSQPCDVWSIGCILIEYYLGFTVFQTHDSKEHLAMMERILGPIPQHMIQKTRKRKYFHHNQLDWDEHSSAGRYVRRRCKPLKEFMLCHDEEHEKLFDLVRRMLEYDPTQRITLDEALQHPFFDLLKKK", "assay": "Selectivity interaction (Kinase panel (Invitrogen)) EUB0000639a CLK4", "details": "at 200 nM"}, "[12]": {"biological_target": "Serine/threonine-protein kinase PAK 2 (Homo sapiens) (UniProt Q13177)", "sequence (Q13177 whole entry)": "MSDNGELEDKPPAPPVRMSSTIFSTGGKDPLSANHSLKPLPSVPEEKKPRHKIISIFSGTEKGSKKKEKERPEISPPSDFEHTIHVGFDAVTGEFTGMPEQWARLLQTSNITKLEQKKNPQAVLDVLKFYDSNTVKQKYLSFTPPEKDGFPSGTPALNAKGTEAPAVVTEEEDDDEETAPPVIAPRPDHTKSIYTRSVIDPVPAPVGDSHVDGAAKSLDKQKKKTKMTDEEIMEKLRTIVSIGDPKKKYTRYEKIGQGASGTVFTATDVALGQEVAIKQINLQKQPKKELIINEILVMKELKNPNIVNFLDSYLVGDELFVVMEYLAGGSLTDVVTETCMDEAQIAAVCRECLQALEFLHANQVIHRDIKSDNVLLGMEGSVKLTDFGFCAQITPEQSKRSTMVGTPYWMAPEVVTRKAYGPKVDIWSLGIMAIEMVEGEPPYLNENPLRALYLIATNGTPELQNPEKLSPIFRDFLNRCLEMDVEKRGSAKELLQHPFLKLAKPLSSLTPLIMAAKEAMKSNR", "details": "at 10 µM"}, "[13]": {"biological_target": "T2, Mitogen-activated protein kinase kinase kinase 3 (Homo sapiens) (UniProt Q99759)", "T2 sequence (whole entry)": "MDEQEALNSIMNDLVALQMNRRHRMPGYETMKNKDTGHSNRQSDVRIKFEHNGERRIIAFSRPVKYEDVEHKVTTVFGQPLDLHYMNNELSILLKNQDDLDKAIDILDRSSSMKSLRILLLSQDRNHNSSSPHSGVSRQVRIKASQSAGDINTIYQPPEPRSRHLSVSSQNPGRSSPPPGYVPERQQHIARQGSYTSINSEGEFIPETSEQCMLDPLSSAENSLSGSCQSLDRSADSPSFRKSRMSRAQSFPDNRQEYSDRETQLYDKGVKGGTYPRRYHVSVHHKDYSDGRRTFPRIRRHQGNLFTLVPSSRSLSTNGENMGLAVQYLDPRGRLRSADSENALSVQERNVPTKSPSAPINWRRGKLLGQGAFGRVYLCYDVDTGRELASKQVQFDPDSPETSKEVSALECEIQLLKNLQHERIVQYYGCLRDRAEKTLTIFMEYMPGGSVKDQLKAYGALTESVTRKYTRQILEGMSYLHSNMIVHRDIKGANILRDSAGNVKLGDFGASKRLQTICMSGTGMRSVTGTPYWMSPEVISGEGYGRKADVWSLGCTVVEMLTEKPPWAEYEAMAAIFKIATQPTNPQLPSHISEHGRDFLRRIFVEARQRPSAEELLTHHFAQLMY", "assay": "Selectivity interaction (Ambit KINOMEscan and KiNATiv profiling in Jurkat cells) EUB0000090b MAP3K3", "type": "cell-based", "details": "at 1 µM"}},
  "data": [
    {"smiles": "C=CC(=O)Nc1ccc(C(=O)Nc2[nH]nc3c2CN(C(=O)N[C@H](CN(C)C)c2ccccc2)C3(C)C)cc1", "values": [
      {"measurement": "% of engagement", "setting": "[1]", "value": -7.6, "unit": "%"},
      {"measurement": "% of engagement", "setting": "[2]; Selectivity number of off-targets 0.0, Selectivity number of targets 233.0, Source Knowledge https://www.sciencedirect.com/science/article/pii/S2451945619300674?via%3Dihub", "value": 15.8, "unit": "%"},
      {"measurement": "% of engagement", "setting": "[2]", "value": 6.4, "unit": "%"}
    ]},
    {"smiles": "CN(C(=O)c1cnn2cccnc12)c1cc2c(cc1N1CCOCC1)C(=O)N(C[C@@H](F)C(C)(C)O)C2", "values": [
      {"measurement": "dTM", "setting": "[3]", "value": 0.8, "unit": "K"}
    ]},
    {"smiles": "C=CC(=O)Nc1cc(-n2c(=O)ccc3cnc4ccc(-c5ccc(NS(C)(=O)=O)cc5)cc4c32)ccc1C", "values": [
      {"measurement": "% of control", "setting": "[4]; at 1 µM", "value": 100, "unit": "%"},
      {"measurement": "% of control", "setting": "[4]; at 10 µM", "value": 100, "unit": "%"}
    ]},
    {"smiles": "Cn1cc(-n2cnc3c(NCc4nc5cc(Cl)c(Cl)cc5[nH]4)nc(N4CCOCC4)nc32)cn1", "values": [
      {"measurement": "% of control", "setting": "[5]", "value": 5.87, "unit": "%"}
    ]},
    {"smiles": "O=C(NOC[C@H](O)CO)c1ccc(F)c(F)c1Nc1ccc(I)cc1F", "values": [
      {"measurement": "% of control", "setting": "[6]", "value": 84, "unit": "%"}
    ]},
    {"smiles": "Cc1cc(CN)cc(C)c1-c1ncn(C)c1-c1cncn1C", "values": [
      {"measurement": "dTM", "setting": "[7]", "value": -0.53, "unit": "K"}
    ]},
    {"smiles": "C=CC(=O)Nc1cccc(C(=O)Nc2ccc(Nc3cc(-c4[nH]c(SC)nc4C)ccn3)cc2)c1", "values": [
      {"measurement": "% of control", "setting": "Insulin receptor", "value": 81, "unit": "%"}
    ]},
    {"smiles": "CNC(=O)Nc1ccc(-c2nc(N3CC4CCC(C3)O4)c3cnn(C4CCC5(CC4)OCCO5)c3n2)cc1", "values": [
      {"measurement": "% of control", "setting": "[8]", "value": 42, "unit": "%"},
      {"measurement": "% of control", "setting": "[9]", "value": 100, "unit": "%"},
      {"measurement": "% of inhibition", "setting": "[10]", "value": -4, "unit": "%"}
    ]},
    {"smiles": "CC[C@@H]1[C@H](F)C(=O)N[C@@H]1COc1nccc2cc(C(N)=O)c(OC)cc12", "note": "[ZIMLOVISERTIB]", "values": [
      {"measurement": "% of inhibition", "setting": "[11]", "value": 75.7, "unit": "%"}
    ]},
    {"smiles": "CCN(CC)CCCCNc1ncc2cc(-c3cc(OC)cc(OC)c3)c(NC(=O)NC(C)(C)C)nc2n1", "values": [
      {"measurement": "% of control", "setting": "[12]", "value": 100, "unit": "%"}
    ]},
    {"smiles": "CN(C)C/C=C/C(=O)Nc1ccc(C(=O)N2CCCC(Nc3ncc(Cl)c(-c4c[nH]c5ccccc45)n3)C2)cc1", "note": "(stereo unspecified)", "values": [
      {"measurement": "% of control", "setting": "[13]", "value": 90, "unit": "%"}
    ]}
  ]
}
